Source: patent US20240316023A1, “BENEDIN, PIPERIDINE, 2-BENZHYDRYL-3-HYDROXY-N-METHYL-, HYDROCHLORIDE AND DERIVATIVES THEREOF FOR USE IN TREATING KLEINE-LEVIN SYNDROME” (priority 2021, published 2024)

Assays:
[1] = molecular target: T1, M1 (h) (antagonist radioligand) (Homo sapiens, UniProt P11229); assay: Radioligand binding panel (Eurofins/CEREP), M1; settings: 10^−5 M; % inhibition of control specific binding; read-out: % Inhibition at 10^−5M Benedin
T1 construct: CEREP (Eurofins, France), contract panel
T1 sequence (P11229 1-460): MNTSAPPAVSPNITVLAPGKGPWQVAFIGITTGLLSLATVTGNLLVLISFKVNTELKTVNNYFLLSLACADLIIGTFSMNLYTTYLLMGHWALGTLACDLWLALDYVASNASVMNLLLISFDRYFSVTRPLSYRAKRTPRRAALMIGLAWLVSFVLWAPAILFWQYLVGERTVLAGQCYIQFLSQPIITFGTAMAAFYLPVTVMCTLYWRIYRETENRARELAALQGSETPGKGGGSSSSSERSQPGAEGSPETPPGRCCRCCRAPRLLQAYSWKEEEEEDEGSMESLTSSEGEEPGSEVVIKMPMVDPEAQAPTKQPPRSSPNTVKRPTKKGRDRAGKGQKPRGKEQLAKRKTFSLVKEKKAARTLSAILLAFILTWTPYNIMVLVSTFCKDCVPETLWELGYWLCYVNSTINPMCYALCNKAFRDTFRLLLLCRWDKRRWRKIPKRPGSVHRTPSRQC
Procedure: (§1) Benedin was tested at 10^−5 M, calculated as a % inhibition of control specific binding of a radioactively labeled ligand specific for each target.
(§2) This binding profile panel was broadly defined with roughly an equal number of selective, central and peripheral therapeutically relevant targets, including native animal tissues, radioligands and specific enzymes involved in cell cycle regulation in accordance with Eurofins Standard Operating Procedure.
(§3) For radioligand binding experiments, the half maximal inhibitory concentration (IC50) and the half maximal effective concentration (EC50) values were determined (via computer software) by nonlinear regression analysis of the competition curves using Hill equation curve fitting. The inhibition constants (Ki) were calculated using the Cheng-Prusoff equation (Ki=IC50/(1+(L/KD)), where L is the concentration of radioligand in the assay, and KD is the affinity of the radioligand for the receptor.^60
(§4) The results are expressed as a % control specific binding ([measured specific binding/control specific binding]×100) and as a % inhibition of control specific binding (100−[(measured specific binding/control specific binding)×100] obtained in the presence of the test compounds. […]

[2] = molecular target: RXFP4 (h) (agonist radioligand) (Homo sapiens, UniProt Q8TDU9); assay: GPCR Biosensor cAMP Hunter assay, RXFP4; assay type: cell-based
Chain of RXFP4 (h) (agonist radioligand) (Q8TDU9 whole entry): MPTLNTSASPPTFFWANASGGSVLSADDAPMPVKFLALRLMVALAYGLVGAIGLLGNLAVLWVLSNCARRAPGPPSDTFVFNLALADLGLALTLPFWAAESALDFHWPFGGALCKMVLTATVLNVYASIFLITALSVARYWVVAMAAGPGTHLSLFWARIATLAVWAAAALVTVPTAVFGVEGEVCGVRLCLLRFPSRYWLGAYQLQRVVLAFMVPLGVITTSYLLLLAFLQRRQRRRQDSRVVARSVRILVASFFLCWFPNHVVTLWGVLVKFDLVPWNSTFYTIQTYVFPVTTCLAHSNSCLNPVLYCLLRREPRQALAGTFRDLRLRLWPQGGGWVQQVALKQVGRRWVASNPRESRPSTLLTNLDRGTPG
Procedure: Benedin is found to weakly bind with RXFP4 and RXFP3 receptors (Study FR095-0024749-Q Eurofins/leadHunter Jun. 25, 2021; unpublished data) (Table 2).
In these assays' compounds were tested in agonist and antagonist mode with the GPCR Biosensor Assays and match to this design:
1. cAMP Hunter cell lines were expanded from freezer stocks according to standard procedures.
2. Cells were seeded in a total volume of 20 μL into white walled, 384-well microplates and incubated at 37° C. for the appropriate time prior to testing.
3. cAMP modulation was determined using the DiscoverX HitHunter CAMP XS+assay.
1. For agonist determination, cells were incubated with sample in the presence of EC80 forskolin to induce response.
2. Media was aspirated from cells and replaced with 15 μL 2:1 HBSS/10 mM Hepes: CAMP XS+Ab reagent. […]
2. Microplates were read following signal generation with a PerkinElmer Envision™ instrument for chemiluminescent signal detection.
5. For Gi agonist mode assays, percentage activity is calculated using the following formula: % Activity=100%×(1−(mean RLU of test sample-mean RLU of MAX control)/(mean RLU of vehicle control−mean RLU of MAX control)).
8. For Gi antagonist or negative allosteric mode assays, percentage inhibition is calculated using the following formula: % Inhibition=100%×(mean RLU of test sample−mean RLU of EC80 control)/(mean RLU of forskolin positive control−mean RLU of […]

[3] = molecular target: T2, Kappa (h) (KOP) (agonist radioligand) (Homo sapiens, UniProt P41145); assay: Radioligand binding panel (Eurofins/CEREP), kappa opioid; settings: 10^−5 M; % inhibition of control specific binding; read-out: % Inhibition at 10^−5M Benedin
T2 construct: CEREP (Eurofins, France), contract panel
T2 sequence (P41145 whole entry): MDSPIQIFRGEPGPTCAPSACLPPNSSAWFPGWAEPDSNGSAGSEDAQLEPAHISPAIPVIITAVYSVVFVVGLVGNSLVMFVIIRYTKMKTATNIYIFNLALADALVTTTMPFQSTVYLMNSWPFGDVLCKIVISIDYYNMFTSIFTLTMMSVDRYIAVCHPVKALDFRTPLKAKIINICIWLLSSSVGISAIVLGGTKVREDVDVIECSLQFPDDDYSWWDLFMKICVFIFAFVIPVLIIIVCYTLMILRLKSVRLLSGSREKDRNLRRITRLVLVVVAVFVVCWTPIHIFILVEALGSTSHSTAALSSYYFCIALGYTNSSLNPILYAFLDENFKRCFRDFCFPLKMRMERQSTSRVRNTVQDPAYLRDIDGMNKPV
Procedure: as §1, §2, §3, §4

[4] = molecular target: T3, mu (h) (MOP) (agonist radioligand) (Homo sapiens, UniProt P35372); assay: Radioligand binding panel (Eurofins/CEREP), mu opioid; settings: 10^−5 M; % inhibition of control specific binding; read-out: % Inhibition at 10^−5M Benedin
T3 construct: CEREP (Eurofins, France), contract panel
T3 sequence (P35372 whole entry): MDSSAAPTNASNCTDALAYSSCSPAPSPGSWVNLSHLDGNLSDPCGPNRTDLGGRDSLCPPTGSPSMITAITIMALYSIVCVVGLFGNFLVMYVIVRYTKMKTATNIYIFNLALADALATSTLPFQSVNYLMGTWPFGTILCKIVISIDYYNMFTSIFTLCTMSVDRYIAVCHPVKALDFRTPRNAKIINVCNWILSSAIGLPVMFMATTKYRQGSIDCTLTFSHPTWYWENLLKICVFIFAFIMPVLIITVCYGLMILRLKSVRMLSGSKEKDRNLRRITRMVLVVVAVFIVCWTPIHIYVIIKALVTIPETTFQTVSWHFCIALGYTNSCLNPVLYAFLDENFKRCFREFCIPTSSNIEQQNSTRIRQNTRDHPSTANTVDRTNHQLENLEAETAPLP
Procedure: as §1, §2, §3, §4

With `CN1CCCC(O)C1C(c1ccccc1)c1ccccc1` (centres unmarked) [Benedin, 2-benzhydryl-3-hydroxy-N-methyl-piperidine] the inhibition at 10 µM [1] was 75%, the “% Inhibition at 10^−5M Benedin” value [2] was “weakly bind” and the inhibition at 10 µM ([2]; 10^−5 M, read-out: % Inhibition at 10^−5M Benedin) was 26.3%. For the same compound, the inhibition at 10 µM [3] was 39.2% and the inhibition at 10 µM [4] was 24.4%.
